Measured values as given in patent publication US20060018921A1, “Histone deacetylase inhibitors and cognitive applications” (priority 2004, published 2006).
Entries after “also recorded” stand apart in the source; their conditions may differ.

Columns and labels:
[1] = test system: Schaffer-collateral synapses; experiment: Slice electrophysiology, basal synaptic transmission (baseline fEPSP, input/output, paired-pulse facilitation, tetanus depolarization); format: cell-based, Sprague-Dawley rats
NMDA-Rs = experiment: NMDA-R mediated synaptic transmission in slices with CNQX; format: cell-based, Sprague-Dawley rats; settings: TSA 1.65 μM over 3 h; CNQX 20 μM, ACSF with 4 mM CaCl2 and no MgCl2
Method: In FIG. 8A, slices were exposed to the AMPA-R antagonist CNQX (20 μM) and perfused with an ACSF containing 4 mM CaCl2 and no MgCl2. The resulting field potentials represent NMDA-R mediated synaptic transmission (English and Sweatt, 1997). […] Representative traces immediately before (dashed) and 186 min after (solid) introduction of TSA are shown. Calibration bar indicates 5 msec and 1 mV. In FIG. 8B, slices were exposed to both TSA (1.65 μM) and the NMDA-R antagonist AP5 (50 μM) 20 min prior to LTP induction. After induction of LTP, the AP5 was washed out but slices were still exposed to TSA. Induction of LTP in the presence of TSA was blocked by AP5 (n=8, F[89,612]=0.5, p<1). […] In FIG. 8C, depolarization was measured during a 100 Hz tetanus in slices treated with either vehicle (0.05% EtOH, n=10) or TSA (1.65 μM, n=10) for 20 min. […]
In another series of studies, the present inventors investigated the possibility that TSA was affecting properties of NMDA-Rs. To directly measure any long-term affects of TSA on NMDA-Rs, field potentials were recorded in the presence of the AMPA-R antagonist CNQX to isolate the NMDA-R-dependent component of synaptic transmission. […] To further explore the potential affects of TSA on synaptic transmission, we measured the depolarization that occurs during the 100 Hz tetanus used to induce LTP.

animals deficient in CBP = settings: infusion directly into the brain of animals deficient in CBP; Korzus et al., Alarcon et al. (2004); cited from earlier work
ras transformed cells = settings: Taunton et al., 1996; cited from earlier work
[2] = mouse model; Takahashi et al., 1996; cited from earlier work
ERK2 = experiment: P-ERK2 western blot, acute hippocampal slices, area CA1; settings: slices treated 1 h; PDA 3 μM, FSK 50 μM with 100 μM Ro20-1724, U0126 20 μM, PD98059 50 μM, 4αP 3 μM, dFSK 50 μM with 100 μM Ro20-1724, TSA
histone H3 (Lys14) = experiment: Acetylation of histone H3, acute hippocampal slices, area CA1; settings: slices treated 1 h; PDA 3 μM, FSK 50 μM with 100 μM Ro20-1724, 4αP 3 μM, dFSK 50 μM with 100 μM Ro20-1724, U0126 20 μM, PD98059 50 μM, TSA 1.65 μM
[3] = test system: histone H4 (Lys5/Lys8/Lys12/Lys16); experiment: Acetylation of histone H4, acute hippocampal slices, area CA1; settings: slices treated 1 h; TSA 1.65 μM

Question: Which “input/output relationships and PPF, slices treated with DRB vs DRB and TSA” value ([1]; 20 min and 3 h after application, data not shown) does the source give for `CC(/C=C/C(=O)NO)=C\[C@@H](C)C(=O)c1ccc(N(C)C)cc1` [TSA, trichostatin A] here?
Answer: no significant differences in basal synaptic transmission

Question: What about the “depolarization during 100 Hz tetanus, area under the curve” value ([1]; TSA 1.65 μM for 20 min vs vehicle 0.05% EtOH) of the same compound?
Answer: No significant difference in area under the curve

Question: What about the input/output relationships ([1]; TSA for 20 min vs vehicle) of the same compound?
Answer: no significant effect; also recorded: No significant differences

Question: What about the paired-pulse facilitation ([1]; TSA for 20 min vs vehicle) of the same compound?
Answer: no significant effect; also recorded: unaffected

Question: And the input/output relationships ([1]; TSA for 3 h vs vehicle)?
Answer: no significant effect; also recorded: No significant differences

Question: And the paired-pulse facilitation ([1]; TSA for 3 h vs vehicle)?
Answer: no significant effect; also recorded: unaffected

Question: What about the “baseline synaptic efficacy where LTP was not induced” value ([1]; continuous TSA, up to 3 h after start of treatment) of the same compound?
Answer: no effect on synaptic transmission in the absence of high-frequency stimulation; also recorded: no effect on baseline synaptic efficacy

Question: What about the “NMDA-R mediated synaptic transmission” value (NMDA-Rs) of the same compound?
Answer: unaffected; also recorded: no short or long-term effects

Question: What about the “performance in long-term memory tasks” value (animals deficient in CBP) of the same compound?
Answer: improved the animals' performance in some long-term memory tasks

Question: And the hyperacetylation (ras transformed cells)?
Answer: induce hyperacetylation

Question: What about the “morphology of ras transformed cells” value (ras transformed cells) of the same compound?
Answer: cause reversion of ras transformed cells to normal morphology

Question: And the immunosuppression [2]?
Answer: induces immunosuppression in a mouse model

Question: What about the “levels of P-ERK2” value (ERK2) of the same compound?
Answer: without affecting levels of P-ERK2; also recorded: no effect on P-ERK2

Question: What about the “histone H3 acetylation” value (histone H3 (Lys14)) of the same compound?
Answer: significantly increased acetylation of H3; also recorded: increased acetylation of histone H3

Question: What about the “histone H4 acetylation” value [3] of the same compound?
Answer: increased the acetylation of histone H4; also recorded: significant effect on H4 acetylation
